Measurements: patent US12459951B2, “Compounds that interact with RAS superfamily proteins for treatment of cancers, inflammatory diseases, rasopathies, and fibrotic disease” (SHY Therapeutics, LLC, priority 2022, dated 2025)

Legend:
IL6 = assay: IL-6 Quantification Assay (ELISA), LPS-stimulated RAW 264.7; assay type: cell-based; set-up: inhibition: dose or concentration left out as unconfirmed; settings: Mus musculus, RAW264.7; read-out: IL-6: % inh.
TNF-alpha = TNF-alpha Quantification Assay (ELISA), LPS-stimulated RAW 264.7; assay type: cell-based; settings: Mus musculus, RAW264.7; at 10 μM; read-out: TNFα: % inh.
Akt phosphorylation = assay: Akt Phosphorylation Assay (western blot), Panc-1; assay type: cell-based, human; settings: at 10 μM, * = activation
Outline: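 Panc-1 (KRas G12D) cells were treated with compound at 10 μM final (0.3% DMSO) for 6 h at 37 °C, or with serial dilutions for IC50. Cells were either serum-starved overnight in 0.5% FBS and then stimulated with 1.5 ng/ml EGF for 15 min, or kept in 10% FBS without stimulation. Akt Ser473 phosphorylation in lysates was read by western blot.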

Rac-1 = target: T1, Rac-1 (Homo sapiens, UniProt P63000); assay: Ras GTP Binding Domain Inhibition Assay (Ras Superfamily Assay); settings: read-out: Rac-1: % inh.
T1 construct: made in house
Outline: (§1)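 Ni-plate capture of His-tagged protein (10-30 μg/mL, o/n 4° C); cpd 20 μM or dilution series, 1% DMSO, 3 h RT ± Sos 556-1049 last h; 100 nM Cy-labelled GTP 45 min RT; 3× wash; fluorescence read.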

KRas G12D mutant = assay: as above; settings: 20 μM compound; for KRas G12D mutant + SOS: % inh.: with SOS; for KRas G12D mutant: % inh.: without SOS
Outline: as §1

KRas wild type = assay: as above; settings: 20 μM compound; for KRas wild type + SOS: % inh.: with SOS; for KRas wild type: % inh.: without SOS
Outline: as §1

Row | Compound | inhibition (IL6) [%] | inhibition at 10 µM (TNF-alpha) [%] | % inh of Akt phosphorylation in Panc-1 (Akt phosphorylation) | inhibition at 20 µM (Rac-1) [%] | KRas G12D mutant + SOS: % inh. (KRas G12D mutant) | KRas G12D mutant: % inh. (KRas G12D mutant) | KRas wild type + SOS: % inh. (KRas wild type) | KRas wild type: % inh. (KRas wild type)
1 | COCC1CCN(c2nc(-c3nccn3C)nn3cc(-c4ccn(C(C)C)n4)c(-c4ccccc4)c23)C1.Cl (racemic) [Compound 19, rac 6-(1-Isopropyl-1H-pyrazol-3-yl)-4-(3-(methoxymethyl)pyrrolidin-1-yl)-2-(1-methyl-1H-imidazol-2-yl)-5-phenylpyrrolo[2,1-f][1,2,4]triazine hydrochloride salt] | 75 to 100 | 25 to 49 | D* (85-100% activation) | 0 | A (A = 1-25% inhibition) | B (B = 26-49% inhibition) | A (A = 1-25% inhibition) | A (A = 1-25% inhibition)
2 | Cc1c(-c2ccn(C(C)C)n2)cn2nc(-c3nccn3C)nc(Nc3ncc(C4CC4)o3)c12 [Compound 90, 5-Cyclopropyl-N-(6-(1-isopropyl-1H-pyrazol-3-yl)-5-methyl-2-(1-methyl-1H-imidazol-2-yl)pyrrolo[2,1-f][1,2,4]triazin-4-yl)oxazol-2-amine] | 0 | 1 to 24 | A* (1-25% activation) | 76 to 100 | A (A = 1-25% inhibition) | 0 (0 = 0% inhibition) | 0 (0 = 0% inhibition) | B (B = 26-49% inhibition)
3 | COc1cc(Nc2nc(-c3nccn3C)nn3cc(-c4ccn(C(C)C)n4)c(-c4ccccc4)c23)ncn1 [Compound 22, 6-(1-Isopropyl-1H-pyrazol-3-yl)-N-(6-methoxypyrimidin-4-yl)-2-(1-methyl-1H-imidazol-2-yl)-5-phenylpyrrolo[2,1-f][1,2,4]triazin-4-amine] | 75 to 100 | 0 | A* (1-25% activation) | 26 to 49 | B (B = 26-49% inhibition) | B (B = 26-49% inhibition) | A (A = 1-25% inhibition) | B (B = 26-49% inhibition)
